Non-standard residues stand in square brackets, D forms with d. sY = N[C@@H](Cc1ccc(OS(=O)(=O)O)cc1)C(=O)O
Tests used:
Format in all cases: cell-based
[1] = tested on: human dermal fibroblasts (HDF); experiment: Wound healing (scratch) assay on human dermal fibroblasts; conditions: FIG. 17; 5 μg/ml and 0.05 μg/ml; 5 days of treatment; triplicate mean; vs 0.1% FBS basal, 10% FBS and TGF-β1 positive controls
Protocol: In order to test the effect of the sulfaction state of the peptides on their activity, it is herewith provided as reference example a wound healing assay conducted onto human dermal fibroblasts (HDF).
Human dermal fibroblasts were seeded in a 24-well plate and were grown to confluence. A 2 mm width scratch was done on the culture monolayer. Then the test products in culture medium were added and the cicatrisation process was followed by means of phase contrast microscopy. With this aim, photographs were taken at initial of the test (T=0 h) before the scratching and after the treatment (at 12 h and at 72 h). Cicatrisation process was evaluated by quantifying wound area reduction at each time.
Data at the end of the test (5 days of treatment) are depicted in FIG. 17, wherein the wound healing potential is depicted as the Healed Area (in μm^2) for assayed peptide.
The results derive from a triplicate test. Values of cicatrised area (or % of cicatrisation) are the mean values.

[2] = tested on: human hair follicle papilla cells (HFDPC); experiment: In vitro proliferation of hair follicle dermal papilla cells (BrdU incorporation); conditions: FIGS. 2 and 3; peptides with or without end-terminal modifications at 5.86, 2.93, 1.46 μg/ml; basal control = 100%
Protocol: In order to test the effects of the cell-free supernatants, as well as of the peptides of the invention, a proliferation assay was conducted onto human hair follicle papilla cells (CELL APPLICATIONS, INC; Normal human hair follicles from temporal scalp. Single donor: Ref. 602-05a. Lot. 2092.).
The culture media was a Papilla Cell Basal Medium supplemented with the Growth Supplements kit (Relative composition: Fetal bovine serum, growth factors and antibiotics. Application: 6% v/v).
HFDPC proliferation was assessed determining the proliferation index (%). Cell DNA replication was quantified by means of incorporated bromodeoxiuridine (BrdU) into DNA of treated cells. BrdU assay allows measuring cell proliferation based on cell capability of incorporating BrdU during S-phase of the cell cycle. Cells being divided incorporated BrdU that is further detected by means of antibodies and immunocytochemistry detection.
Cells were seeded at confluence in a 96-well plate. After stabilization and synchronization of cell cultures the tested products were added (at the final concentration indicated in Table 1 of Examples. After that, BrdU was added to cultures and HFDPC were incubated at 37° C. until complete BrdU incorporation. BrdU amounts were proportional to the number of cell divisions and thus to the growth of the treated culture.
Data are depicted in FIG. 1, FIG. 2 and FIG. 3, wherein it is shown the proliferation index (%) of HFDPC, calculated as the percentage of growing in relation to the basal control (non-treated HFDPC) which is accorded a 100% value of proliferation index.

[3] = tested on: human dermal fibroblasts (HDF); experiment: In vitro proliferation of human dermal fibroblasts (BrdU incorporation); conditions: FIGS. 6 and 7; 4Aa at 25, 12.5, 1.25 μg/ml, 5Aa at 1.25, 0.63, 0.25 μg/ml; basal control = 100%
Protocol: In order to further test the effects of the peptides of the invention in an additional setting, a proliferation assay was conducted onto human dermal fibroblasts (HDF).
Normal Human Dermal Fibroblasts (HDF) were obtained from foreskin samples, surpluses from surgery of young donors (0-3 years old) and stablished by using the standard method of explants growth and enzymic dissociation of proliferating cells. Cells were propagated and grown in Growth Medium (GM): Dulbecco's 1 g/L glucose medium, supplemented with 10% foetal bovine serum (FBS, PAA); 2 mM L-glutamine (Lonza); and antibiotics (100 μg/ml Penicillin and 100 U/ml of Streptomycin, Lonza). For routine subcultivation and propagation of the primary culture, cells were washed twice with PBS ([…] buffered saline, pH 7.4), harvested with trypsin—EDTA (Gibco) and counted in Neubauer chamber before its seeding in a new cell culture flask (Falcon, 75 cm2).
Test products were prepared at the defined final concentrations by its dilution in Maintenance Medium (Dulbecco's 1 g/L glucose medium, supplemented with 1% foetal bovine serum (FBS, PAA); 2 mM L-glutamine (Lonza); and antibiotics (100 μg/ml Penicillin and 100 U/ml of Streptomycin, Lonza), just before each application.
HFD proliferation was assessed determining the proliferation index (%). Cell DNA replication was quantified by means of incorporated bromodeoxiuridine (BrdU) into DNA of treated cells. […] Cells being divided incorporated BrdU that is further detected by means of antibodies and immunocytochemistry detection. […]
Data are depicted in FIG. 6 and FIG. 7, wherein it is shown the proliferation index (%) of HDF, calculated as the percentage of growing in relation to the basal control (non-treated HDF) which is accorded a 100% value of proliferation index. […]
Data are depicted in FIG. 16, wherein it is shown the proliferation index (%) of HDF, calculated as the percentage of growing in relation to the basal control (non-treated HDF) which is accorded a 100% value of proliferation index.

Substance | wound healing potential, Healed Area [1] | proliferation index of HFDPC [2] | proliferation index of HDF [3]
CH3—C(O)—Xaa1IYT-NH2 (Ac-[sY]IYT-NH2; SMILES CC[C@H](C)[C@H](NC(=O)[C@H](Cc1ccc(OS(=O)(=O)O)cc1)NC(C)=O)C(=O)N[C@@H](Cc1ccc(O)cc1)C(=O)N[C@H](C(N)=O)[C@@H](C)O) [SEQ ID NO: 2, Xaa1 is a tyrosine residue with the side-chain hydroxyl group replaced by a radical —OSO3H] | have the same activity as the 4Aa non-sulfated peptide |  | 
CH3—C(O)—YIXaa2T-NH2 (Ac-YI[sY]T-NH2; SMILES CC[C@H](C)[C@H](NC(=O)[C@H](Cc1ccc(O)cc1)NC(C)=O)C(=O)N[C@@H](Cc1ccc(OS(=O)(=O)O)cc1)C(=O)N[C@H](C(N)=O)[C@@H](C)O) [SEQ ID NO: 3, Xaa2 is a tyrosine residue with the side-chain hydroxyl group replaced by a radical —OSO3H] | have the same activity as the 4Aa non-sulfated peptide |  | 
CH3—C(O)—YIYTQ-NH2 (Ac-YIYTQ-NH2) [SEQ ID NO: 7] |  | can promote cell proliferation | can promote cell proliferation of HDF

From patent US12570694B2, “Peptides and pharmaceutical, nutraceutical or veterinary compositions for hair loss prevention and/or treatment” (VYTRUS BIOTECH, S.L., priority 2016, dated 2026)
